Converted amounts (≈) assume the structure as drawn.
What was measured:
Test in all cases: MIC, Staphylococcus panel (Table I-2)
Format in all cases: cell-based
Settings in all cases: 18 h, 4% DMSO
[1] = test system: Staphylococcus caprae (CHUG-Scapra1)
Method: (§1) We used the previously described protocol, with subtle modifications. The microdilution method recommended by the Clinical and Laboratory Standard Institute [M07-A9, Vol. 32, N^o 2] was used. The activity of bis-indolic compounds was tested against 35 bacterial strains belonging to 12 different Staphylococcus species.
(§2) Bacterial inocula were prepared in Mueller Hinton broth (MH2, BioMerieux, Marcy L'Etoile, France). They were dispensed in 96 well microtiter plates (5×10^5 CFU/ml of final inoculum, 192 μL per well). Indolic compounds diluted in pure DMSO (8 μL per well, concentrated 25 times) were added to the wells as to obtain two-fold serial concentrations (0.5-32 mg/L of final concentrations). The final concentration of DMSO was 4% in each well.
(§3) To avoid cross-contaminations in microtiter plates, one row was left blank between each strain tested. Microplates were incubated for 18 h at 37° C. in ambient air or at 37° C. in 5% CO2 enriched atmosphere for fastidious species. Then MICs were read visually and, in case of visual reading difficulties, confirmed using a spectrophotometer at a wavelength of 630 nm (BioTek® EL808 Absorbance Microplate Reader). MICs corresponded to the minimum bis-indolic compound concentration that allowed complete visual growth inhibition of bacteria. Drug-free cultures served as growth controls.
(§4) Coagulase-negative Staphylococcus strains included three reference strains purchased from CRBIP: a methicillin-susceptible S. epidermidis strain (ATCC 12228), a methicillin-resistant S. epidermidis strain (ATCC 49461), and a methicillin-susceptible S. sciuri strain (ATCC 29061). We also used clinical strains belonging to the following coagulase-negative Staphylococcus species: S. auricularis (two strains), S. warneri (five strains), S. capitis (five strains), S. haemolyticus (four strains), S. hominis (seven strains), S. cohnii (two strains), and S. saprophyticus, S. caprae and S. simulans (one strain each). Identification of the clinical strains was obtained using VITEK® 2 System (Biomérieux).

[2] = test system: Staphylococcus capitis (CHUG-Scap7)
Method: as §1, §2, §3, §4

[3] = test system: Staphylococcus warneri (CHUG-Swar5)
Method: as §1, §2, §3, §4

| Structure (SMILES) | MIC [1] [µg/mL] | MIC [2] [µg/mL] | MIC [3] [µg/mL] |
| --- | --- | --- | --- |
| CC(NC(=O)C(=O)c1c[nH]c2ccc(Br)cc12)c1c[nH]c2ccc(Br)cc12 (stereo not drawn) [Compound 5, 2-(5-Bromo-1H-indol-3-yl)-N-(1-(5-bromo-1H-indol-3-yl)ethyl)-2-oxoacetamide] | 2 (≈ 4.09 µM) | 2 (≈ 4.09 µM) | 1 (≈ 2.04 µM) |
| CC(C)(C)OC(=O)NCC(NC(=O)C(=O)c1c[nH]c2ccc(Br)cc12)c1c[nH]c2ccc(Br)cc12 (stereo not drawn) [Compound 4, tert-Butyl(2-(5-bromo-1H-indol-3-yl)-2-(2-(5-bromo-1H-indol-3-yl)-2-oxoacetamido)ethyl) carbamate] | 1 (≈ 1.65 µM) | 1 (≈ 1.65 µM) | 1 (≈ 1.65 µM) |
